Laboratory results reported in publication PMC9596378, “Discovery and molecular basis of subtype-selective cyclophilin inhibitors” (Nature Chemical Biology, 2022).
Several values for one entry are separate records, joined by “and”; a condition that tells them apart may be missing. Equal values may be shown once. Read-outs that look alike come from different tables or passages of the source.

Legend:
[1] = molecular target: T1, PPWD1 (Homo sapiens, UniProt Q96BP3); assay: Chymotrypsin coupled prolyl-isomerase assay; assay type: biochemical;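 on PPWD1 prolyl-isomerase raw dose-response reading (Fig. 6c): Per-well observed rate constant from one-phase association fit in s−1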
T1 construct: PPWD1 (UniProtKB Entry Q96BP3: residues 473–646); host or cells: E. coli BL21(DE3)
T1 sequence (Q96BP3 473-646): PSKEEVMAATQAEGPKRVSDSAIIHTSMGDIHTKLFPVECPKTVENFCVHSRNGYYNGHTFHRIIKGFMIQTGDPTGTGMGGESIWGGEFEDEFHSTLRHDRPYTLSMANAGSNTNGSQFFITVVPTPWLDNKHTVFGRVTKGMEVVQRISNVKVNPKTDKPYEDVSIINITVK

[2] = molecular target: T2, NKTR (Homo sapiens, UniProt P30414); assay: Chymotrypsin coupled prolyl-isomerase assay; assay type: biochemical;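 on NKTR prolyl-isomerase raw dose-response reading (Fig. 6c): Per-well observed rate constant from one-phase association fit in s−1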
T2 construct: NKTR (UniProtKB Entry P30414: residues 7–179); host or cells: E. coli BL21(DE3)
T2 sequence (P30414 7-179): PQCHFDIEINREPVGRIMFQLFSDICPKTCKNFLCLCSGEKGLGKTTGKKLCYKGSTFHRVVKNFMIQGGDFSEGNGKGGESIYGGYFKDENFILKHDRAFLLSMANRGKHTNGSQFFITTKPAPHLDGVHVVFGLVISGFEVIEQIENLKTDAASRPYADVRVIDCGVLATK

[3] = molecular target: T3, PPIL1 (Homo sapiens, UniProt Q9Y3C6); assay: Chymotrypsin coupled prolyl-isomerase assay; assay type: biochemical;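 on PPIL1 prolyl-isomerase raw dose-response reading (Fig. 6c): Per-well observed rate constant from one-phase association fit in s−1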
T3 construct: PPIL1 (UniProtKB Entry Q9Y3C6: residues 1–166); made in house; host or cells: E. coli BL21(DE3)
T3 sequence (Q9Y3C6 1-166): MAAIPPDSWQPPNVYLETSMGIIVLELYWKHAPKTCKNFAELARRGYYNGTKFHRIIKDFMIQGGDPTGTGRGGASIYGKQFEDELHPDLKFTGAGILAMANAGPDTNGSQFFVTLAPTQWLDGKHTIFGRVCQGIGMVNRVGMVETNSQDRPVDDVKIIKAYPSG
Method: Adapting a previously described protocol[51], with an Agilent Bravo Velocity 11 with a 384ST head, 90 µL assay buffer (25 mM HEPES pH 7.3, 100 mM NaCl, 0.01% Triton X-100) containing 5.28 nM cyclophilin was added into a flat, clear-bottom, black 384-well plate pre-chilled in a Corning CoolBox at 2–3 °C. Five microliters of compound pre-dissolved in 5% DMSO/assay buffer was then added to appropriate wells and incubated at 2–3 °C for 5 min. Five microliters of 0.5 mM α-chymotrypsin from bovine pancreas (Type II, lyophilized powder, Millipore-Sigma) in 20% 1 mM HCl/Assay Buffer was then added to each well and incubated at 2–3 °C for 5 min. […] Using the internal liquid handling system of the FLIPR, 1 µL 0.5 mM Suc-AAPF-AMC (Chymotrypsin Substrate II, Millipore-Sigma) dissolved in 0.55 M LiCl/2,2,2-trifluoroethanol was added to each well, which was then mixed for 5 s, followed by immediate fluorescence measurements every 1 s for 330 s using a 360–380 nm excitation LED module and a 400–460 nm emission filter. Final concentrations of the plate include 5 nM cyclophilin, 0.25% DMSO, 25 µM α-chymotrypsin, 5 µM Suc-AAPF-AMC. Raw fluorescence data was analyzed by non-linear regression analysis with Prism v.9 by fitting one-phase association curves to each well. Analyses were halted after the calculated maximum fluorescent value owing to observed fluorescent bleaching during the sustained fluorescent plateau. Rate constants calculated for each well (s^−1) were then normalized to substrate only (no prolyl-isomerase) and enzyme + substrate only controls. IC50 values were calculated as the value at which 50% inhibition was achieved on the non-linear regression fitted curve of each compound.

[4] = molecular target: Cyp40 (Homo sapiens, UniProt Q08752); assay: Chymotrypsin coupled prolyl-isomerase assay;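 on Cyp40 prolyl-isomerase raw dose-response reading (Fig. 6c): observed rate constant per well from one-phase association fit in s−1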
Summary of the method: (§1)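 5 nM Cyp, HEPES pH 7.3/NaCl/Triton buffer, 2–3 °C; cpd 5 min, chymotrypsin 25 µM 5 min, then Suc-AAPF-AMC 5 µM in LiCl/TFE. Kinetic fluorescence 330 s. Per-well rate constants, normalized, IC50 from nonlinear fit.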

[5] = molecular target: T4, CypB (Homo sapiens, UniProt P23284); assay: biochemical;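 on CypB prolyl-isomerase raw dose-response reading (Fig. 6c): observed rate constant per well from one-phase association fit in s−1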
T4 construct: PPIB (UniProtKB Entry P23284: residues 34–216); His6 with TEV site (2BT vector leader) (N); made in house; host or cells: E. coli BL21(DE3)
Summary of the method: as §1

[6] = molecular target: CypD (Homo sapiens, UniProt P30405); assay: Chymotrypsin coupled prolyl-isomerase assay;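 on CypD prolyl-isomerase raw dose-response reading (Fig. 6c): observed rate constant per well from one-phase association fit in s−1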
Chain of CypD (P30405 45-207): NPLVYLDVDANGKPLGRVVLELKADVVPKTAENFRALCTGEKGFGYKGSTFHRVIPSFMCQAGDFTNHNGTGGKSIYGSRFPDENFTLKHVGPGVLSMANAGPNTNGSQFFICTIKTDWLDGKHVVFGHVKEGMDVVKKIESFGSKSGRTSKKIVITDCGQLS

T4 sequence (P23284 34-216): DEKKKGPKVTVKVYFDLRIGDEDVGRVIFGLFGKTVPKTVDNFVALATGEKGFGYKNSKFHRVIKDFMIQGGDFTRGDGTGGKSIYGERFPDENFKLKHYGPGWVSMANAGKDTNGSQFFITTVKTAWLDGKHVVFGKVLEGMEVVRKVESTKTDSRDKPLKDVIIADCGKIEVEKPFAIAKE
Chain of Cyp40 (Q08752 1-183): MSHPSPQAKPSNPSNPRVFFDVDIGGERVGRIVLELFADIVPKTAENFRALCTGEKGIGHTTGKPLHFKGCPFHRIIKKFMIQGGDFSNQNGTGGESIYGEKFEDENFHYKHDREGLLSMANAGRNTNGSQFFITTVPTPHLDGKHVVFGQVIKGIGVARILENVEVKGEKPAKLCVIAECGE

## NC(=O)C1CCNC(=O)C=CC(=O)N2CCCC(Cc3ccccc3)(C2)C(=O)NC(Cc2ccc(-c3ccc(C=O)c(B(O)O)c3)cc2)C(=O)NCc2ccccc2CC(=O)N1 (stereo not shown) [Compound C3A]
[1]; Dose 0.00457247 µM
  PPWD1 prolyl-isomerase raw dose-response reading (Fig. 6c): 0.0469 and 0.04534 and 0.05629
[1]; Dose 0.0137174 µM
  PPWD1 prolyl-isomerase raw dose-response reading (Fig. 6c): 0.04565 and 0.04397 and 0.06065
[1]; Dose 0.0411523 µM
  PPWD1 prolyl-isomerase raw dose-response reading (Fig. 6c): 0.05156 and 0.0487 and 0.05013
[1]; Dose 0.123457 µM
  PPWD1 prolyl-isomerase raw dose-response reading (Fig. 6c): 0.04255 and 0.04648 and 0.048
[1]; Dose 0.37037 µM
  PPWD1 prolyl-isomerase raw dose-response reading (Fig. 6c): 0.04707 and 0.04395 and 0.05999
[1]; Dose 1.11111 µM
  PPWD1 prolyl-isomerase raw dose-response reading (Fig. 6c): 0.04661 and 0.0432 and 0.04546
[1]; Dose 3.33333 µM
  PPWD1 prolyl-isomerase raw dose-response reading (Fig. 6c): 0.03786 and 0.03919 and 0.04546
[1]; Dose 10 µM
  PPWD1 prolyl-isomerase raw dose-response reading (Fig. 6c): 0.02858 and 0.03234 and 0.0406
[1]; Dose 16.6667 µM
  PPWD1 prolyl-isomerase raw dose-response reading (Fig. 6c): 0.02581 and 0.0305 and 0.02503 and 0.03058 and 0.01822 and 0.02069 and 0.01922 and 0.02384
[1]; Independent replicate 1, read-out: IC50 PPWD1
  IC50: > 10 µM
[1]; Independent replicate 2, read-out: IC50 PPWD1
  IC50: 8 ± 4 µM
[1]; Independent replicate 3, read-out: IC50 PPWD1
  IC50: 6 ± 2 µM
[1]; Independent replicate 4, read-out: IC50 PPWD1
  IC50: 9 ± 3 µM
[1]; prolyl-isomerase inhibition, 5 nM cyclophilin, read-out: IC50 PPWD1
  IC50: 8 ± 2 µM
[1]; wild-type PPWD1, read-out: Wild-Type Cyclophilin Prolyl Isomerase Inhibition IC50 Values, PPWD1
  IC50: 8 µM
[2]; Dose 0.00457247 µM
  NKTR prolyl-isomerase raw dose-response reading (Fig. 6c): 0.03021 and 0.03304 and 0.03422
[2]; Dose 0.0137174 µM
  NKTR prolyl-isomerase raw dose-response reading (Fig. 6c): 0.0282 and 0.04075 and 0.02833
[2]; Dose 0.0411523 µM
  NKTR prolyl-isomerase raw dose-response reading (Fig. 6c): 0.03114 and 0.03658 and 0.02835
[2]; Dose 0.123457 µM
  NKTR prolyl-isomerase raw dose-response reading (Fig. 6c): 0.03167 and 0.03382 and 0.0302
[2]; Dose 0.37037 µM
  NKTR prolyl-isomerase raw dose-response reading (Fig. 6c): 0.03191 and 0.03367 and 0.02844
[2]; Dose 1.11111 µM
  NKTR prolyl-isomerase raw dose-response reading (Fig. 6c): 0.03612 and 0.0297 and 0.03587
[2]; Dose 3.33333 µM
  NKTR prolyl-isomerase raw dose-response reading (Fig. 6c): 0.03487 and 0.03208 and 0.0346
[2]; Dose 10 µM
  NKTR prolyl-isomerase raw dose-response reading (Fig. 6c): 0.02874 and 0.02696 and 0.02891
[2]; Independent replicate 1, read-out: IC50 NKTR
  IC50: > 10 µM
[2]; Independent replicate 2, read-out: IC50 NKTR
  IC50: ~30 µM
[2]; Independent replicate 3, read-out: IC50 NKTR
  IC50: ~30 µM
[2]; Independent replicate 4, read-out: IC50 NKTR
  IC50: ~40 µM
[2]; wild-type NKTR, read-out: Wild-Type Cyclophilin Prolyl Isomerase Inhibition IC50 Values, NKTR
  IC50: 33 µM
[3]; Dose 0.00114312 µM
  PPIL1 prolyl-isomerase raw dose-response reading (Fig. 6c): 0.05471 and 0.0599 and 0.05622
[3]; Dose 0.00342936 µM
  PPIL1 prolyl-isomerase raw dose-response reading (Fig. 6c): 0.05168 and 0.05762 and 0.07551
[3]; Dose 0.00457247 µM
  PPIL1 prolyl-isomerase raw dose-response reading (Fig. 6c): 0.05739 and 0.05515 and 0.06362 and 0.05346 and 0.05755 and 0.06002 and 0.05207 and 0.04334
[3]; Dose 0.0102881 µM
  PPIL1 prolyl-isomerase raw dose-response reading (Fig. 6c): 0.04812 and 0.0449 and 0.05106
[3]; Dose 0.0308642 µM
  PPIL1 prolyl-isomerase raw dose-response reading (Fig. 6c): 0.06685 and 0.05223 and 0.05525
[3]; Dose 0.0925926 µM
  PPIL1 prolyl-isomerase raw dose-response reading (Fig. 6c): 0.05203 and 0.04221 and 0.05411
[3]; Dose 0.277778 µM
  PPIL1 prolyl-isomerase raw dose-response reading (Fig. 6c): 0.04184 and 0.0372 and 0.04929
[3]; Dose 0.833333 µM
  PPIL1 prolyl-isomerase raw dose-response reading (Fig. 6c): 0.02447 and 0.02506 and 0.03512
[3]; Dose 2.5 µM
  PPIL1 prolyl-isomerase raw dose-response reading (Fig. 6c): 0.0232 and 0.01951 and 0.02784
[3]; Independent replicate 1, read-out: IC50 PPIL1
  IC50: 0.4 ± 0.2 µM
[3]; Independent replicate 2, read-out: IC50 PPIL1
  IC50: 0.5 ± 0.2 µM
[3]; Independent replicate 3, read-out: IC50 PPIL1
  IC50: 0.25 ± 0.06 µM
[3]; Independent replicate 4, read-out: IC50 PPIL1
  IC50: 0.36 ± 0.08 µM
[3]; prolyl-isomerase inhibition, 5 nM cyclophilin, read-out: IC50 PPIL1
  IC50: 0.4 ± 0.1 µM
[3]; wild-type PPIL1, read-out: Wild-Type Cyclophilin Prolyl Isomerase Inhibition IC50 Values, PPIL1
  IC50: 0.4 µM
[4]; Dose 0.00457247 µM
  Cyp40 prolyl-isomerase raw dose-response reading (Fig. 6c): 0.0614 and 0.06993 and 0.05711
[4]; Dose 0.0137174 µM
  Cyp40 prolyl-isomerase raw dose-response reading (Fig. 6c): 0.05865 and 0.05903 and 0.06506
[4]; Dose 0.0411523 µM
  Cyp40 prolyl-isomerase raw dose-response reading (Fig. 6c): 0.05035 and 0.06856 and 0.04615
[4]; Dose 0.123457 µM
  Cyp40 prolyl-isomerase raw dose-response reading (Fig. 6c): 0.06664 and 0.05611 and 0.06364
[4]; Dose 0.37037 µM
  Cyp40 prolyl-isomerase raw dose-response reading (Fig. 6c): 0.05889 and 0.05946 and 0.05108
[4]; Dose 1.11111 µM
  Cyp40 prolyl-isomerase raw dose-response reading (Fig. 6c): 0.05961 and 0.05287 and 0.0489
[4]; Dose 3.33333 µM
  Cyp40 prolyl-isomerase raw dose-response reading (Fig. 6c): 0.034 and 0.04378 and 0.03695
[4]; Dose 10 µM
  Cyp40 prolyl-isomerase raw dose-response reading (Fig. 6c): 0.03483 and 0.03698 and 0.03412
[4]; IC50 Cyp40, Independent replicate 1
  IC50: 3 ± 1 µM
[4]; IC50 Cyp40, Independent replicate 2
  IC50: 1.4 ± 0.5 µM
[4]; IC50 Cyp40, Independent replicate 3
  IC50: 1.4 ± 0.3 µM
[4]; IC50 Cyp40, Independent replicate 4
  IC50: 1.9 ± 0.5 µM
[4]; Wild-Type Cyclophilin Prolyl Isomerase Inhibition IC50 Values, Cyp40, wild-type Cyp40
  IC50: 1.8 µM
[5]; Dose 0.00114312 µM
  CypB prolyl-isomerase raw dose-response reading (Fig. 6c): 0.06934 and 0.06783 and 0.08183
[5]; Dose 0.00342936 µM
  CypB prolyl-isomerase raw dose-response reading (Fig. 6c): 0.07621 and 0.06975 and 0.07172
[5]; Dose 0.0102881 µM
  CypB prolyl-isomerase raw dose-response reading (Fig. 6c): 0.07116 and 0.04746 and 0.08093
[5]; Dose 0.0308642 µM
  CypB prolyl-isomerase raw dose-response reading (Fig. 6c): 0.07891 and 0.06745 and 0.0815
[5]; Dose 0.0925926 µM
  CypB prolyl-isomerase raw dose-response reading (Fig. 6c): 0.06054 and 0.05873 and 0.07182
[5]; Dose 0.277778 µM
  CypB prolyl-isomerase raw dose-response reading (Fig. 6c): 0.07925 and 0.05977 and 0.05725
[5]; Dose 0.833333 µM
  CypB prolyl-isomerase raw dose-response reading (Fig. 6c): 0.07516 and 0.05333 and 0.06224
[5]; Dose 2.5 µM
  CypB prolyl-isomerase raw dose-response reading (Fig. 6c): 0.05113 and 0.04833 and 0.05428
[5]; Independent replicate 1, read-out: IC50 CypB
  IC50: ~3 µM
[5]; Independent replicate 2, read-out: IC50 CypB
  IC50: 7 ± 3 µM
[5]; Independent replicate 3, read-out: IC50 CypB
  IC50: 3 ± 1 µM
[5]; Independent replicate 4, read-out: IC50 CypB
  IC50: 3 ± 2 µM
[5]; wild-type CypB, read-out: Wild-Type Cyclophilin Prolyl Isomerase Inhibition IC50 Values, CypB
  IC50: 4 µM
[6]
  IC50: 0.6 ± 0.1 µM
[6]; Dose 0.00114312 µM
  CypD prolyl-isomerase raw dose-response reading (Fig. 6c): 0.06909 and 0.06564 and 0.08467
[6]; Dose 0.00342936 µM
  CypD prolyl-isomerase raw dose-response reading (Fig. 6c): 0.0763 and 0.06566 and 0.07012
[6]; Dose 0.00457247 µM
  CypD prolyl-isomerase raw dose-response reading (Fig. 6c): 0.04911 and 0.0434 and 0.06663 and 0.05943 and 0.05791 and 0.04481
[6]; Dose 0.0102881 µM
  CypD prolyl-isomerase raw dose-response reading (Fig. 6c): 0.06833 and 0.05597 and 0.06694
[6]; Dose 0.0308642 µM
  CypD prolyl-isomerase raw dose-response reading (Fig. 6c): 0.07034 and 0.05622 and 0.06
[6]; Dose 0.0411523 µM
  CypD prolyl-isomerase raw dose-response reading (Fig. 6c): 0.05515 and 0.05553 and 0.04718 and 0.06514 and 0.05753 and 0.05809 and 0.04157
[6]; Dose 0.0925926 µM
  CypD prolyl-isomerase raw dose-response reading (Fig. 6c): 0.06297 and 0.05517 and 0.06275
[6]; Dose 0.277778 µM
  CypD prolyl-isomerase raw dose-response reading (Fig. 6c): 0.05848 and 0.04977 and 0.05604
[6]; Dose 0.833333 µM
  CypD prolyl-isomerase raw dose-response reading (Fig. 6c): 0.04291 and 0.04333 and 0.04298
[6]; Dose 2.5 µM
  CypD prolyl-isomerase raw dose-response reading (Fig. 6c): 0.03189 and 0.02949 and 0.03114
[6]; IC50 CypD, Independent replicate 1, mean±SEM of 3 technical replicates
  IC50: 0.7 ± 0.3 µM
[6]; IC50 CypD, Independent replicate 2
  IC50: 0.6 ± 0.3 µM
[6]; IC50 CypD, Independent replicate 3
  IC50: 0.41 ± 0.08 µM
[6]; IC50 CypD, Independent replicate 4
  IC50: ~0.7 µM
[6]; Wild-Type Cyclophilin Prolyl Isomerase Inhibition IC50 Values, CypD, wild-type CypD
  IC50: 0.6 µM
